Target: T1, human GlyT1c transporter (Homo sapiens, UniProt P48067)
T1 construct: expressed in transfected cells; host or cells: CHO cells (recombinant; line hGlyT1c_5_CHO is named for the uptake assay)
T1 sequence (P48067 1-706): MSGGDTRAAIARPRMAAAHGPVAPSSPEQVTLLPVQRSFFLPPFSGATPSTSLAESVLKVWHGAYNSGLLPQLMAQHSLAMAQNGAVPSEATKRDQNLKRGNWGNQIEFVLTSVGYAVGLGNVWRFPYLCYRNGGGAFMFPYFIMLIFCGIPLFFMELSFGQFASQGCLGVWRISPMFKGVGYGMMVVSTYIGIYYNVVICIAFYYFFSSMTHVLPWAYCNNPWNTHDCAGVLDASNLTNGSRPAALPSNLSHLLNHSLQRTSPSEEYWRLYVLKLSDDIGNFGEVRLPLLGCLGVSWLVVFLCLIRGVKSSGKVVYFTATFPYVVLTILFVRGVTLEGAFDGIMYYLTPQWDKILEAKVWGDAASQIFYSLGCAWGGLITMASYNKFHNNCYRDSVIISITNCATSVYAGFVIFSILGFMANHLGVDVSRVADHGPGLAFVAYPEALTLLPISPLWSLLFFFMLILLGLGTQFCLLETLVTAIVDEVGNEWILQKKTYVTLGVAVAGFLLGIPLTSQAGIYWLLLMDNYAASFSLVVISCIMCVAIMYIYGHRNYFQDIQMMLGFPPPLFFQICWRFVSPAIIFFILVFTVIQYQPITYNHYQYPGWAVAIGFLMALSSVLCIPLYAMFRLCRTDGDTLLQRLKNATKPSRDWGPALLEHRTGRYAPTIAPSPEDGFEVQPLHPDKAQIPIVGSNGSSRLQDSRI
Test: Radioligand binding assay using recombinant CHO cell membranes expressing human GlyT1
Details: radioligand binding to human GlyT1c transporter-expressing membranes
Text: 2. Radioligand binding assays using recombinant CHO cell membranes expressing human GlyT1: […]

**Q.** With `CC(C)c1cccc(N[C@@H]2CN(S(=O)(=O)c3cn(C)cn3)C[C@H]2c2ccccc2)c1` (relative stereo) [Example 220, trans-1-[(1-methyl-1H-imidazol-4-yl)sulfonyl]-4-phenyl-N-[3-(propan-2-yl)phenyl]pyrrolidin-3-amine] as the molecule, how does the Ki read?
**A.** The Ki was at most 10 nM.

**Q.** `Cn1cnc(S(=O)(=O)N2C[C@@H](Nc3ccc(F)cc3)[C@H](c3ccccc3)C2)c1` (relative stereo) [Example 71, trans-N-(4-fluorophenyl)-1-[(1-methyl-1H-imidazol-4-yl)sulfonyl]-4-phenylpyrrolidin-3-amine] was tested. Which Ki did it give?
**A.** Its Ki is at most 1000 nM.

**Q.** How did the Ki turn out when `CCCC(C)CN[C@H]1CN(S(=O)(=O)c2cn(C)cn2)C[C@@H]1c1ccccc1` (stereo partly drawn) [Example 446, (3R,4S)-1-[(1-methyl-1H-imidazol-4-yl)sulfonyl]-N-(2-methylpentyl)-4-phenylpyrrolidin-3-amine] was run?
**A.** The Ki was at most 100 nM.

**Q.** How did the Ki turn out when `Cn1cnc(S(=O)(=O)N2C[C@H](c3ccccc3)[C@H](Nc3ccccc3)C2)c1` (relative stereo) [Example 184, (cis)-1-[(1-methyl-1H-imidazol-4-yl)sulfonyl]-N,4-diphenylpyrrolidin-3-amine] was run?
**A.** Its Ki is at most 10000 nM.

**Q.** Which Ki does the source give for `COC(=O)c1csc(S(=O)(=O)N2CC(Nc3ccc(F)c(F)c3)C(c3ccccc3)C2)c1OC` (stereo not shown) [Example 491, methyl 5-({3-[(3,4-difluorophenyl)amino]-4-phenylpyrrolidin-1-yl}sulfonyl)-4-methoxythiophene-3-carboxylate] here?
**A.** Its Ki is at most 10000 nM.

**Q.** With `Cn1cnc(S(=O)(=O)N2C[C@@H](COc3cccc(C(F)(F)F)c3Cl)[C@H](c3ccc(F)cc3)C2)c1` (relative stereo) [Example 250, 4-{[trans-3-{[2-chloro-3-(trifluoromethyl)phenoxy]methyl}-4-(4-fluorophenyl)pyrrolidin-1-yl]sulfonyl}-1-methyl-1H-imidazole] as the molecule, how does the Ki read?
**A.** Its Ki is at most 10000 nM.

**Q.** Which Ki does the source give for `Cn1cnc(S(=O)(=O)N2C[C@@H](C(=O)NCC3CC3)[C@H](c3ccc(F)cc3)C2)c1` [Example 586, (3S,4R)-N-(cyclopropylmethyl)-4-(4-fluorophenyl)-1-[(1-methyl-1H-imidazol-4-yl)sulfonyl]pyrrolidine-3-carboxamide] here?
**A.** Its Ki is at most 1000 nM.

**Q.** With `Cc1ncc(S(=O)(=O)N2CC(Nc3ccc(F)c(F)c3)C(c3ccccc3)C2)n1C` (stereo not shown) [Example 490, N-(3,4-difluorophenyl)-1-[(1,2-dimethyl-1H-imidazol-5-yl)sulfonyl]-4-phenylpyrrolidin-3-amine] as the molecule, how does the Ki read?
**A.** The Ki was at most 10000 nM.

**Q.** With `COc1cc(N[C@H]2CN(S(=O)(=O)c3cn(C)cn3)C[C@@H]2c2ccccc2)ncn1` [Example 621, 6-methoxy-N-{(3R,4S)-1-[(1-methyl-1H-imidazol-4-yl)sulfonyl]-4-phenylpyrrolidin-3-yl}pyrimidin-4-amine] as the molecule, how does the Ki read?
**A.** The Ki was at most 10000 nM.

**Q.** With `Cn1cnc(S(=O)(=O)N2C[C@H](NCCOc3ccc(F)cc3)[C@@H](c3ccc(F)cc3)C2)c1` [Example 667, (3R,4S)-N-[2-(4-fluorophenoxy)ethyl]-4-(4-fluorophenyl)-1-[(1-methyl-1H-imidazol-4-yl)sulfonyl]pyrrolidin-3-amine] as the molecule, how does the Ki read?
**A.** Its Ki is at most 100 nM.

**Q.** Which Ki does the source give for `CCCNC[C@@H]1CN(S(=O)(=O)c2cn(C)cn2)C[C@H]1c1ccc(F)cc1` (relative stereo) [Example 594, N-({trans-4-(4-fluorophenyl)-1-[(1-methyl-1H-imidazol-4-yl)sulfonyl]pyrrolidin-3-yl}methyl)propan-1-amine] here?
**A.** The Ki was at most 10000 nM.

**Q.** For `CCc1ccc(S(=O)(=O)N2CC(Nc3ccc(F)c(F)c3)C(c3ccccc3)C2)s1` (stereo not shown) [Example 492, N-(3,4-difluorophenyl)-1-[(5-ethylthiophen-2-yl)sulfonyl]-4-phenylpyrrolidin-3-amine], which Ki is on record?
**A.** Its Ki is at least 10000 nM.

**Q.** How did the Ki turn out when `Cn1cnc(S(=O)(=O)N2C[C@@H](NCc3ccccc3F)[C@H](c3ccc(F)cc3)C2)c1` (relative stereo) [Example 263, trans-N-(2-fluorobenzyl)-4-(4-fluorophenyl)-1-[(1-methyl-1H-imidazol-4-yl)sulfonyl]pyrrolidin-3-amine] was run?
**A.** Its Ki is at most 100 nM.

**Q.** `Cn1cnc(S(=O)(=O)N2C[C@@H](Nc3cccc(C(F)(F)F)c3F)[C@H](c3ccc(F)cc3)C2)c1` (relative stereo) [Example 167, trans-4-(4-fluorophenyl)-N-[2-fluoro-3-(trifluoromethyl)phenyl]-1-[(1-methyl-1H-imidazol-4-yl)sulfonyl]pyrrolidin-3-amine] was tested. Which Ki did it give?
**A.** The Ki was at most 100 nM.

**Q.** For `Cn1cnc(S(=O)(=O)N2C[C@H](Nc3cccc(C(F)(F)F)n3)[C@@H](c3ccc(F)cc3)C2)c1` [Example 351, N-{(3R,4S)-4-(4-fluorophenyl)-1-[(1-methyl-1H-imidazol-4-yl)sulfonyl]pyrrolidin-3-yl}-6-(trifluoromethyl)pyridin-2-amine], which Ki is on record?
**A.** Its Ki is at most 1000 nM.

**Q.** Which Ki does the source give for `Cn1cnc(S(=O)(=O)N2C[C@@H](NCc3ccccc3)[C@H](c3ccc(F)cc3)C2)c1` (relative stereo) [Example 148, trans-N-benzyl-4-(4-fluorophenyl)-1-[(1-methyl-1H-imidazol-4-yl)sulfonyl]pyrrolidin-3-amine] here?
**A.** The Ki was at most 10000 nM.

**Q.** How did the Ki turn out when `Cn1cc(S(=O)(=O)N2C[C@@H](NC(=O)c3cccc(C(F)(F)F)c3Cl)[C@H](c3ccccc3)C2)c(C(F)(F)F)n1` (relative stereo) [Example 38, 2-chloro-N-[trans-1-{[1-methyl-3-(trifluoromethyl)-1H-pyrazol-4-yl]sulfonyl}-4-phenylpyrrolidin-3-yl]-3-(trifluoromethyl)benzamide] was run?
**A.** The Ki was at most 10000 nM.

**Q.** Which Ki does the source give for `Cn1cnc(S(=O)(=O)N2C[C@@H](Nc3cccc(OC(F)(F)F)c3)[C@H](c3ccccc3)C2)c1` (relative stereo) [Example 226, trans-1-[(1-methyl-1H-imidazol-4-yl)sulfonyl]-4-phenyl-N-[3-(trifluoromethoxy)phenyl]pyrrolidin-3-amine] here?
**A.** The Ki was at most 10 nM.

**Q.** `Cn1cnc(S(=O)(=O)N2C[C@@H](NCc3ccc(C(F)(F)F)cc3Cl)[C@H](c3ccccc3)C2)c1` (relative stereo) [Example 281, trans-N-[2-chloro-4-(trifluoromethyl)benzyl]-1-[(1-methyl-1H-imidazol-4-yl)sulfonyl]-4-phenylpyrrolidin-3-amine] was tested. Which Ki did it give?
**A.** Its Ki is at most 10 nM.

**Q.** For `Cn1cnc(S(=O)(=O)N2C[C@H](NCc3ccc(C(F)(F)F)cn3)[C@@H](c3ccccc3)C2)c1` [Example 409, (3R,4S)-1-[(1-methyl-1H-imidazol-4-yl)sulfonyl]-4-phenyl-N-{[5-(trifluoromethyl)pyridin-2-yl]methyl}pyrrolidin-3-amine], which Ki is on record?
**A.** The Ki was at most 100 nM.

**Q.** With `Cn1cnc(S(=O)(=O)N2C[C@@H](NCc3ccncc3)[C@H](c3ccc(F)cc3)C2)c1` (relative stereo) [Example 270, trans-4-(4-fluorophenyl)-1-[(1-methyl-1H-imidazol-4-yl)sulfonyl]-N-(pyridin-4-ylmethyl)pyrrolidin-3-amine] as the molecule, how does the Ki read?
**A.** Its Ki is at most 10000 nM.

**Q.** `Cn1cnc(S(=O)(=O)N2C[C@@H](C(=O)Nc3ccc(F)c(Cl)c3)[C@H](c3ccc(F)cc3)C2)c1` (relative stereo) [Example 275, trans-N-(3-chloro-4-fluorophenyl)-4-(4-fluorophenyl)-1-[(1-methyl-1H-imidazol-4-yl)sulfonyl]pyrrolidine-3-carboxamide] was tested. Which Ki did it give?
**A.** The Ki was at most 1000 nM.

**Q.** `COc1ccc(S(=O)(=O)N2C[C@@H](Nc3cccc(C#N)c3)[C@H](c3ccccc3)C2)cc1` (relative stereo) [Example 137, 3-({trans-1-[(4-methoxyphenyl)sulfonyl]-4-phenylpyrrolidin-3-yl}amino)benzonitrile] was tested. Which Ki did it give?
**A.** Its Ki is at most 10000 nM.

Same assay, conditions: radioligand binding, recombinant CHO cell membranes expressing human GlyT1c

**Q.** Which Ki does the source give for `Cn1cnc(S(=O)(=O)N2C[C@@H](Nc3cc(C(F)(F)F)c(Cl)cn3)[C@H](C3CCCO3)C2)c1` (relative stereo) [Example 844, 5-Chloro-N-[trans-1-[(1-methyl-1H-imidazol-4-yl)sulfonyl]-4-(tetrahydrofuran-2-yl)pyrrolidin-3-yl]-4-(trifluoromethyl)pyridin-2-amine] here?
**A.** The Ki was at most 1000 nM.

**Q.** Which Ki does the source give for `Cn1cnc(S(=O)(=O)N2CC3c4ccccc4CCC3(NCc3ccc(C(F)(F)F)cc3Cl)C2)c1` (stereo not shown) [Example 890, N-[2-chloro-4-(trifluoromethyl)benzyl]-2-[(1-methyl-1H-imidazol-4-yl)sulfonyl]-1,2,3,4,5,9b-hexahydro-3aH-benzo[e]isoindol-3a-amine] here?
**A.** The Ki was at most 100 nM.

**Q.** `Cn1cnc(S(=O)(=O)N2C[C@@H](OCCNCC(F)(F)F)[C@H](c3ccc(F)cc3)C2)c1` (relative stereo) [Example 814, 2,2,2-trifluoro-N-[2-({trans-4-(4-fluorophenyl)-1-[(1-methyl-1H-imidazol-4-yl)sulfonyl]pyrrolidin-3-yl}oxy)ethyl]ethanamine] was tested. Which Ki did it give?
**A.** Its Ki is at most 1000 nM.

**Q.** For `Cn1cnc(S(=O)(=O)N2C[C@H](Nc3ccc4c(c3)N(Cc3ccccc3)CC4)[C@@H](c3ccccc3)C2)c1` [Example 826, 1-benzyl-N-{(3R,4S)-1-[(1-methyl-1H-imidazol-4-yl)sulfonyl]-4-phenylpyrrolidin-3-yl}-2,3-dihydro-1H-indol-6-amine], which Ki is on record?
**A.** Its Ki is at most 10000 nM.

**Q.** Which Ki does the source give for `Cn1cnc(S(=O)(=O)N2CC(Cc3cc(C(F)(F)F)ccn3)C(c3ccccc3)C2)c1` (stereo not shown) [Example 817, 2-({1-[(1-methyl-1H-imidazol-4-yl)sulfonyl]-4-phenylpyrrolidin-3-yl}methyl)-4-(trifluoromethyl)pyridine] here?
**A.** Its Ki is at most 1000 nM.

— EP2970215B1, “PYRROLIDINE DERIVATIVES, PHARMACEUTICAL COMPOSITIONS CONTAINING THEM, AND THEIR USE IN THERAPY” (AbbVie Deutschland GmbH & Co. KG, priority 2013, dated 2014)
